Results reported in patent publication US12345644B2, “System and method for assessing cellular metabolic activity” (Trustees of Tufts College, priority 2016, dated 2025).

System: HL-1 cardiomyocytes
Settings: HL-1 cells, CCCP 50 μM, imaged right after exposure, versus vehicle control, n=4 cultures/group
Method: Mouse HL-1 cardiomyocytes are maintained in Claycomb media (Sigma-Alrich). Images are taken right after exposure to low-dose CCCP (50 μM) or vehicle. We prepared 4 dishes for each group, and acquired a total of 16 fields per group (4 fields per dish).
TPEF Data Acquisition: For TPEF imaging, cell cultures are placed in home-made micro-incubator system, which maintained 37° C. and 5% CO2 within a humidified environment throughout the imaging session. […] Images are obtained using a custom-built microscope with a 40×water dipping objective (NA 1.1) or a 25×water dipping objective (NA 0.95, for in vivo imaging only) equipped with a tunable (710-920 nm) Ti: sapphire laser (Mai Tai; Spectra Physics; Mountain View, Calif.). Emission events are registered by a photomultiplier tube (PMT) detector attached to a commercial time-correlated single photon counting (TCSPC) electronics module. To isolate NADH fluorescence, a 460(±20) nm emission filter (Chroma, ET460/40M-2P), corresponding to the NADH emission peak, was placed before the detector. NADH fluorescence images are acquired from this 460 nm detector using 755 nm excitation. FAD fluorescence was isolated using 525(±25) nm emission filter (Chroma, ET525/50M-2P) and 860 nm excitation. […] The laser power and PMT gain are recorded for each image and used to normalize fluorescence intensity.
Optical Redox Ratio Calculation: To process the optical redox ratio, firstly the fluorescence intensity of either NADH or FAD at each pixel was taken as the total photon counts detected during the integration time without spatial binning. For cell cultures, the cytoplasm of cells was selected based on the intensity threshold (FIG. 2F), while the segmentation of cell cytoplasm and lipid areas for BAT tissues was extracted by a combination of fluorescence intensity and lifetime information (FIGS. 71-7F). Pixel-wise redox ratio maps are created by normalized fluorescence intensities as: FAD/(FAD+NADH). […]

**Q.** “carbonyl cyanide m-chlorophenyl hydrazine [CCCP]” was tested. Which “bound NADH fraction (NADH fluorescence lifetime, phasor analysis)” value did it give?
**A.** increase

**Q.** What about the “mitochondrial clustering (β from PSD)” value of the same substance?
**A.** increased

**Q.** And the “optical redox ratio FAD/(NADH+FAD)” value?
**A.** elevated
